Data: patent US20240124478A1, “SPIROCYCLIC-SUBSTITUTED 6,7-DIHYDRO-PYRANO[2,3-d]PYRIMIDINE INHIBITORS OF KRAS G12C MUTANT” (Merck Sharp & Dohme LLC, priority 2020, published 2024)
Like-named read-outs stand apart in the source and are kept apart here.

Legend:
[1] = system: NCI-H358 cells; test: Cellular phospho-ERK assay; type: cell-based; details: 2 hour incubation, ratio of p-Erk vs total Erk, read-out: IC50 (nM) pERK (Cell)
Experimental: NCI-H358 cells (ATCC® CRL-5807™) were cultured in T150 flask in growth medium (RPMI medium 1640-(ThermoFisher Scientific 61870) containing 10% fetal bovine serum (ThermoFisher Scientific 10091148)). The cells were harvested in growth medium after TrypLE (ThermoFisher scientific 12604021) digestion and were seeded in 384-well collagen coated cell culture plate (Corning 356702) at a density of 15,000 cells/well, and incubated at 37° C., 5% CO2 overnight. The compound dose-response titrations were prepared and appropriate amounts of compounds were dispensed in a 384-well intermediate plate using an Echo 550 liquid handler. RPMI medium 1640-GlutaMAX™-I were added to the intermediate plate and transferred to 384-well cell culture plate, which was incubated at 37° C., 5% CO2 for 2 hours. After removal of medium from the plate, cells were lysed in lysis buffer from SureFire® Ultra™ Multiplex p-Erk and total Erk assay kit (PerkinElmer MPSU-PTERK) containing Halt™ Protease and Phosphotase inhibitor cocktail (ThermoFisher Scientific 78446) at room temperature with constant shaking at 300 rpm for 30 minutes. The cell lysates were then transferred to OptiPlate-384 plate (PerkinElmer 6005620) and the phosphorylation of Erk and total Erk levels were detected by Alpha SureFire Ultra Multiplex p-Erk kit PerkinElmer MPSU-PTERK) following the manufacturer's protocol. Assay plates were read on an EnVision Multimode Plate Reader (PerkinElmer), and the ratio of p-Erk vs total Erk in each well was used as the final readout. Dose response curves were analyzed using a 4-parameter logistic model to calculate IC50 values using spotfire software.

[2] = biological target: recombinant biotinylated KRAS protein containing G12C/C51S/C80L/C118S mutations (Biotinylated KRAS G12C protein) (Homo sapiens (Human), UniProt P01116, C118S/C51S/C80L/G12C); test: SOS-catalyzed nucleotide exchange assay (TR-FRET); type: biochemical; details: apparent potency; preincubation time of 60 minutes prior to addition of SOS
Experimental: The SOS-catalyzed nucleotide exchange assay utilizes a preformed complex of recombinant biotinylated KRAS protein containing G12C/C51S/C80L/C118S mutations (183 amino acids; biotin on K10; leader sequence which is an AviTag; referred to as SEQ ID NO: 1 or “Biotinylated KRAS G12C protein” hereafter), Bodipy-GDP, and Terbium-streptavidin. Compounds are added to this complex and then after 60 minutes incubation time, the mixture is treated with recombinant SOS protein and unlabeled GTP. Small molecule inhibitors stabilize the Bodipy-GDP complex whereas the untreated protein rapidly exchanges Bodipy-GDP for unlabeled GTP resulting in reduced TR-FRET signal.
Biotinylated KRAS G12C protein (SEQ ID NO: 1) is diluted to 2 μM in an EDTA buffer (20 mM HEPES, 150 mM sodium chloride, 10 mM EDTA, and 0.01% Tween) and incubated at room temperature for one hour. This mixture is then further diluted to 90 nM in an assay buffer (20 mM HEPES, 150 mM sodium chloride, 10 mM magnesium chloride, and 0.005% Tween) containing 15 nM of Terbium-Streptavidin (Invitrogen, catalog #PV3577) and 900 nM of Bodipy-GDP and incubated at room temperature for six hours. This solution is referred to as Biotinylated KRAS G12C mixture.
Each test compound (10 mM stock in DMSO) is diluted in DMSO to make a 10-point, 3-fold dilution series in a 384-well low dead volume microplate (Labcyte, catalog #LP-0200). Once titrations are made, 10 nL of the diluted compounds is acoustically dispensed into a 384-well plate (Corning, catalog #3820) using an Echo 550 (Labcyte).
Each well of the plate receives 3 μL Biotinylated KRAS G12C mixture that had been incubating for six hours and 3 μL of assay buffer using a BioRAPTR (Beckman Coulter) and is incubated at room temperature for 60 minutes. Each well then receives 3 μL of 240 nM recombinant human SOS protein and 9 mM GTP (Sigma, G8877) in assay buffer and is incubated at room temperature for 60 minutes.
The time-resolved fluorescence resonance energy transfer signal of the plate is measured on an Envision (PerkinElmer) plate reader: Excitation filter=340 nm; emission1=495 nm; emission2=520 nm; dichroic mirror=D400/D505; delay time=100 μs. The signal of each well is determined as the ratio of the emission at 520 nm to that at 495 nm. Percent effect of each well is determined after normalization to control wells containing DMSO (no effect) or a saturating concentration of inhibitor (max effect). The apparent effect as a function of compound concentration is fit to a four parameter logistic equation.

Sequence of recombinant biotinylated KRAS protein containing G12C/C51S/C80L/C118S mutations (Biotinylated KRAS G12C protein) (P01116 other isoform, or with tags, fused parts or gaps, stated change not applied): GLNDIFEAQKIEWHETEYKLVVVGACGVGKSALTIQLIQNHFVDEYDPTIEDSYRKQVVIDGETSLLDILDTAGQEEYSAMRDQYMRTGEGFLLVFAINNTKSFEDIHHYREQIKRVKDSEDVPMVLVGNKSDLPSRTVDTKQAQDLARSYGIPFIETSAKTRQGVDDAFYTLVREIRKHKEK

Row | SMILES | IC50 ([1]; Homo sapiens, NCI-H358, 2 h) [nM] | IC50 [2] [nM] | IC50 [1] [nM]
1 | C=CC(=O)N1CCN(c2nc(OC[C@@H]3CCCN3C)nc3c2CCC2(CCCc4ccccc42)O3)CC1 (single isomer, unassigned) [Example 21a] | 10200 | 5340 | 
2 | C=CC(=O)N1CCN(c2nc(OC[C@@H]3CCCN3C)nc3c2CCC2(CCCc4cccc(Cl)c42)O3)CC1 (single isomer, unassigned) [Example 23a] | 26500 | 5070 | 
3 | C=CC(=O)N1CCN(c2nc(OC[C@@H]3CCCN3C)nc3c2CCC2(CC(C)c4ccccc42)O3)C[C@@H]1CC#N (single isomer, unassigned) [Example 25a] |  | 14.2 | 1100
4 | C=CC(=O)N1CCN(c2nc(OC[C@@H]3CCCN3C)nc3c2CCC2(CC(C)c4ccccc42)O3)C[C@@H]1CC#N (single isomer, unassigned) [Example 25b] |  | 11.6 | 2740
5 | C=CC(=O)N1CCN(c2nc(OC[C@@H]3CCCN3C)nc3c2CCC2(CC(C)c4ccccc42)O3)C[C@@H]1CC#N (single isomer, unassigned) [Example 25c] |  | 253 | 11000
6 | C=CC(=O)N1CCN(c2nc(OC[C@@H]3CCCN3C)nc3c2CCC2(CC(C)c4ccccc42)O3)C[C@@H]1CC#N (single isomer, unassigned) [Example 25d] |  | 113 | 8130
7 | C=CC(=O)N1CCN(c2nc(OC[C@@H]3CCCN3C)nc3c2CCC2(CCc4c2ccc2[nH]ncc42)O3)C[C@@H]1CC#N (single isomer, unassigned) [Example 28a] | > 30000 | 7840 | 
8 | C=CC(=O)N1CCN(c2nc(OC[C@@H]3CCCN3C)nc3c2CCC2(CCCc4ccccc42)O3)C[C@H]1C (stereo partly drawn) [Example 14a, 1-((2R)-2-methyl-4-(2′-(((S)-1-methylpyrrolidin-2-yl)methoxy)-3,4,5′,6′-tetrahydro-2H-spiro[naphthalene-1,7′-pyrano[2,3-d]pyrimidin]-4′-yl)piperazin-1-yl)prop-2-en-1-one] | 4200 | 2080 | 
9 | C=CC(=O)N1CCN(c2nc(OC[C@@H]3CCCN3C)nc3c2CCC2(O3)c3ccccc3-c3ccccc32)C[C@@H]1CC#N [Example 30, 2-((S)-1-acryloyl-4-(2′-(((S)-1-methylpyrrolidin-2-yl)methoxy)-5′,6′-dihydrospiro[fluorene-9,7′-pyrano[2,3-d]pyrimidin]-4′-yl)piperazin-2-yl)acetonitrile] | 1290 | 68.6 | 

Results, then the compound that gave them:

Row | IC50 ([1]; Homo sapiens, NCI-H358, 2 h) [nM] | IC50 [2] [nM] | IC50 [1] [nM] | SMILES
10 | 1520 | 268 |  | C=CC(=O)N1CCN(c2nc(C(N)=O)nc3c2CCC2(CCCc4ccccc42)O3)C[C@@H]1CC#N (single isomer, unassigned) [Example 18b]
11 | 30000 | 8470 |  | C=CC(=O)N1CCN(c2nc(C(=O)N[C@H](C)CN(C)C)nc3c2CCC2(CCCc4cccc(C)c42)O3)CC1 (single isomer, unassigned) [Example 19a]
12 | 1470 | 41.8 |  | C=CC(=O)N1CCN(c2nc(N3CC(N(C)C)C3)nc3c2CCC2(CCCc4ccccc42)O3)C[C@@H]1CC#N (single isomer, unassigned) [Example 20a]
13 |  | 80.4 | 2760 | C=CC(=O)N1CCN(c2nc(N3CC(N(C)C)C3)nc3c2CCC2(CCCc4ccccc42)O3)C[C@@H]1CC#N (single isomer, unassigned) [Example 20b]
14 | 24600 | 6320 |  | C=CC(=O)N1CCN(c2nc(OC[C@@H]3CCCN3C)nc3c2CCC2(CCc4ccccc42)O3)CC1 (single isomer, unassigned) [Example 22a]
15 | 12900 | 2390 |  | C=CC(=O)N1CCN(c2nc(OC[C@@H]3CCCN3C)nc3c2CCC2(CCCc4cccc(C)c42)O3)CC1 (single isomer, unassigned) [Example 24a]
16 | 30000 | 1080 |  | C=CC(=O)N1CCN(c2nc(OC[C@@H]3CCCN3C)nc3c2CCC2(O3)c3ccccc3CC2(C)C)C[C@@H]1CC#N (single isomer, unassigned) [Example 27a]
17 |  | 4490 | 28600 | C=CC(=O)N1CCN(c2nc(OC[C@@H]3CCCN3C)nc3c2CCC2(O3)c3ccccc3CC2(C)C)C[C@@H]1CC#N (single isomer, unassigned) [Example 27b]
18 |  | 2330 | 29400 | C=CC(=O)N1CCN(c2nc(OC[C@@H]3CCCN3C)nc3c2CCC2(CCc4c2ccc2[nH]ncc42)O3)C[C@@H]1CC#N (single isomer, unassigned) [Example 28b]
19 | 4980 | 576 |  | C=CC(=O)N1CCN(c2nc(OC[C@@H]3CCCN3C)nc3c2CCC2(CCCc4ccccc42)O3)[C@@H](C)C1 (stereo partly drawn) [Example 13a, 1-((3S)-3-methyl-4-(2′-(((S)-1-methylpyrrolidin-2-yl)methoxy)-3,4,5′,6′-tetrahydro-2H-spiro[naphthalene-1,7′-pyrano[2,3-d]pyrimidin]-4′-yl)piperazin-1-yl)prop-2-en-1-one]
20 | 19200 | 5010 |  | C=CC(=O)N1CCN(c2nc(OC[C@@H]3CCCN3C)nc3c2CCC2(Cc4ccccc4C2)O3)C[C@@H]1CC#N [Example 29, 2-((S)-1-acryloyl-4-(2′-(((S)-1-methylpyrrolidin-2-yl)methoxy)-1,3,5′,6′-tetrahydrospiro[indene-2,7′-pyrano[2,3-d]pyrimidin]-4′-yl)piperazin-2-yl)acetonitrile]
